What was measured:
Assay in all cases: relative viability (nuclei count vs DMSO), 5 days (fraction); higher = more cells survive
[1] = compound: C[C@]1(O)C[C@@H](c2nc(-c3ccc4ccc(-c5ccccc5)nc4c3)c3c(N)nccn32)C1 [Linsitinib] + CS(=O)(=O)CCNCc1ccc(-c2ccc3ncnc(Nc4ccc(OCc5cccc(F)c5)c(Cl)c4)c3c2)o1 [Lapatinib] (partner 2 µM)
Outline: (§1)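 Relative viability was taken as the ratio of nuclei in treated wells to nuclei in vehicle wells. Lung cancer cell lines in 1536-well plates received compounds by pin tool one day after seeding, either one drug alone or a fixed anchor-drug dose plus five library-drug doses (not always all listed) in √10 steps. Nuclei were counted on 4× images after 5 days of treatment, and values are medians of duplicate plates.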

[2] = compound: C[C@]1(O)C[C@@H](c2nc(-c3ccc4ccc(-c5ccccc5)nc4c3)c3c(N)nccn32)C1 [Linsitinib] + Nc1nc2[nH]cc(CCc3ccc(C(=O)N[C@@H](CCC(=O)O)C(=O)O)cc3)c2c(=O)[nH]1 [Pemetrexed] (partner 0.2 µM)
Outline: as §1

[3] = compound: C[C@]1(O)C[C@@H](c2nc(-c3ccc4ccc(-c5ccccc5)nc4c3)c3c(N)nccn32)C1 [Linsitinib] + O=C(CCCCCCC(=O)Nc1ccccc1)NO [Vorinostat] (partner 1 µM)
Outline: as §1

[4] = compound: Cc1ccc(C(=O)N(CCCN)[C@@H](c2nc3cc(Cl)ccc3c(=O)n2Cc2ccccc2)C(C)C)cc1 [Ispinesib] + CCNC(=O)c1noc(-c2cc(C(C)C)c(O)cc2O)c1-c1ccc(CN2CCOCC2)cc1 [Luminespib] (partner 0.01 µM)
Outline: as §1

Row | Cell Line | relative viability ([1]; first compound 0.01 µM) | relative viability ([1]; first compound 0.03162 µM) | relative viability ([1]; first compound 0.1 µM) | relative viability ([1]; first compound 0.3162 µM) | relative viability ([1]; first compound 1 µM) | relative viability ([2]; first compound 0.01 µM) | relative viability ([2]; first compound 0.03162 µM) | relative viability ([2]; first compound 0.1 µM) | relative viability ([2]; first compound 0.3162 µM) | relative viability ([2]; first compound 1 µM) | relative viability ([3]; first compound 0.01 µM) | relative viability ([3]; first compound 0.03162 µM) | relative viability ([3]; first compound 0.1 µM) | relative viability ([3]; first compound 0.3162 µM) | relative viability ([3]; first compound 1 µM) | relative viability ([4]; first compound 0.001 µM) | relative viability ([4]; first compound 0.003162 µM) | relative viability ([4]; first compound 0.01 µM) | relative viability ([4]; first compound 0.03162 µM) | relative viability ([4]; first compound 0.1 µM)
1 | NCI-H661 | 0.566 | 0.501 | 0.514 | 0.691 | 0.424 | 0.904 | 0.738 | 0.9 | 0.935 | 0.895 | 0.76 | 0.829 | 0.75 | 0.699 | 0.825 | 0.926 | 0.913 | 0.921 | 0.586 | 0.224
2 | NCI-H1944 | 0.787 | 0.833 | 0.872 | 0.527 | 0.46 | 0.597 | 0.574 | 0.661 | 0.426 | 0.492 | 0.508 | 0.674 | 0.537 | 0.45 | 0.317 | 0.75 | 0.781 | 0.968 | 0.475 | 0.617
3 | NCI-H23 | 1.19 | 0.904 | 1.04 | 0.21 | 0.587 | 0.78 | 0.474 | 0.786 | 0.394 | 0.419 | 0.633 | 0.327 | 0.765 | 0.174 | 0.303 | 0.205 | 0.202 | 0.199 | 0.195 | 0.197
4 | SW 900 |  |  |  |  |  | 0.484 | 0.44 | 0.478 | 0.438 | 0.405 | 0.627 | 0.436 | 0.458 | 0.285 | 0.272 | 0.206 | 0.171 | 0.164 | 0.183 | 0.19
5 | NCI-H2342 |  |  |  |  |  | 0.731 | 0.746 | 0.732 | 0.82 | 0.704 | 0.689 | 0.707 | 0.764 | 0.727 | 0.756 | 0.746 | 0.768 | 0.698 | 0.703 | 0.592
6 | HCC-366 | 1.14 | 0.8 | 1.07 | 0.326 | 0.874 | 0.138 | 0.0729 | 0.156 | 0.119 | 0.127 | 0.41 | 0.328 | 0.324 | 0.218 | 0.0911 |  |  |  |  | 
7 | EBC-1 | 0.259 | 0.26 | 0.248 | 0.244 | 0.2 |  |  |  |  |  |  |  |  |  |  |  |  |  |  | 
8 | ChaGo-K-1 |  |  |  |  |  | 0.263 | 0.243 | 0.271 |  | 0.261 | 0.798 | 0.774 | 0.78 |  | 0.694 | 0.727 | 0.712 | 0.82 | 0.639 | 0.492
9 | LCLC-97TM1 | 0.953 | 0.75 | 0.639 | 0.403 | 0.193 | 0.157 | 0.159 | 0.188 | 0.124 | 0.157 | 0.756 | 0.711 | 0.674 | 0.103 | 0.191 | 0.781 | 0.765 | 0.886 | 0.807 | 0.487
10 | NCI-H1299 | 0.989 | 0.89 | 0.996 | 0.952 | 1.01 |  |  |  |  |  |  |  |  |  |  |  |  |  |  | 
11 | EMC-BAC-2 | 0.914 | 0.893 | 0.806 | 0.686 | 0.694 | 0.397 | 0.394 | 0.447 | 0.448 | 0.432 | 0.44 | 0.441 | 0.426 | 0.398 | 0.214 | 0.797 | 1.32 | 1.36 | 1.13 | 0.6
12 | NCI-H1623 |  |  |  |  |  |  |  |  |  |  |  |  |  |  |  | 0.638 | 0.487 | 0.578 | 0.526 | 0.455
13 | NCI-H441 |  |  |  |  |  | 0.246 | 0.284 | 0.259 | 0.234 | 0.291 | 0.904 | 0.829 | 0.84 | 0.556 | 0.547 | 0.346 | 0.404 | 0.448 | 0.389 | 0.292
14 | LCLC-103H |  |  |  |  |  | 0.441 | 0.459 | 0.46 | 0.341 | 0.505 | 0.775 | 0.68 | 0.836 | 0.429 | 0.605 | 0.95 | 1.08 | 1.08 | 0.752 | 0.785
15 | HOP-62 | 1.06 | 1.15 | 1.01 |  | 0.631 | 0.325 | 0.251 | 0.311 |  | 0.281 | 0.699 | 0.57 | 0.682 |  | 0.36 | 0.899 | 1.02 | 0.93 | 0.794 | 0.814
16 | NCI-H1793 | 0.786 | 0.822 | 0.751 | 0.43 | 0.478 | 0.834 | 0.819 | 0.842 | 0.584 | 0.63 | 0.816 | 0.749 | 0.705 | 0.536 | 0.433 | 0.198 | 0.169 | 0.749 | 0.144 | 0.162
17 | IA-LM | 0.962 | 1.02 | 0.854 | 0.61 | 0.437 |  |  |  |  |  | 0.975 | 0.829 | 1.06 | 0.315 | 0.499 |  |  |  |  | 
18 | A549 | 0.981 | 1.02 | 0.816 | 0.783 | 0.443 |  |  |  |  |  |  |  |  |  |  |  |  |  |  | 
19 | NCI-H1563 | 0.949 | 1.05 | 1.03 | 0.591 | 0.856 | 0.791 | 0.883 | 0.718 | 1.09 | 0.752 |  |  |  |  |  | 0.506 | 0.462 | 0.523 | 0.523 | 0.55
20 | NCI-H727 | 0.716 | 0.724 | 0.863 | 0.428 | 0.377 |  |  |  |  |  | 0.978 | 1.4 | 1.08 | 0.82 | 0.927 | 0.244 | 0.284 | 0.349 | 0.0037 | 0.308
21 | Calu-6 | 0.98 | 0.949 | 1.18 | 0.985 | 0.947 |  |  |  |  |  |  |  |  |  |  |  |  |  |  | 
22 | HCC-78 | 0.364 | 0.651 | 0.514 | 0.676 | 0.542 |  | 0.897 | 0.913 | 0.882 | 0.925 |  | 0.47 | 0.462 | 0.402 | 0.315 |  |  |  |  | 
23 | NCI-H1648 |  |  |  |  |  | 0.95 | 0.553 | 0.658 | 0.592 | 0.826 | 0.605 | 0.412 | 0.551 | 0.211 | 0.57 |  |  |  |  | 

From the supplement of paper PMC10307832
